Measured values as given in patent publication US20170122958A1, “Enzymes Functional Probes” (University of Dundee, priority 2013, published 2017).

Tests used:
Brd2(1) Leu110-Ile = Brd2(1) Leu110-Ile (Homo sapiens, UniProt P25440, L110I); assay: DSF thermal shift; type: binding; design: Plasmids of the eight single BET bromodomain constructs Brd2(1), Brd2(2), Brd3(1), Brd3(2); His6 (N); made in house; host or cells: E. coli BL21(DE3); details: mutant
Brd2(2) Leu383-Ile = Brd2(2) Leu383-Ile (Homo sapiens, UniProt P25440, L383I); assay: DSF thermal shift; type: binding; design: Plasmids of the eight single BET bromodomain constructs Brd2(1), Brd2(2), Brd3(1), Brd3(2); His6 (N); made in house; host or cells: E. coli BL21(DE3); details: mutant
WT GFP-Brd4 = molecular target: T1, WT GFP-Brd4 (Homo sapiens, UniProt O60885); assay: FRAP in transfected U2OS cells; type: cell-based; details: WT GFP-Brd4, 1 μM compound
T1 construct: full length human GFP-BRD4 transfected into human osteosarcoma cells (U2OS); expressed in transfected cells; host or cells: U2OS human osteosarcoma cells
Procedure: Fluorescence recovery after photobleaching (FRAP) experiments were performed in human osteosarcoma U2OS cells transfected with mammalian expression constructs encoding wild type and mutant GFP chimeras of Brd4. Cells were cultured in DMEM (Gibco) supplemented with fetal bovine serum, Penicillin/Streptamycin and L-Glutamine. Cells were seeded into glass bottom dishes (Willco) to about 40% confluency and transfected with the constructs using Effectene (QIAGEN) at least 18 h before the experiment. Treatment of cells with 1 μM compounds (in DMSO) was performed 12-15 h before the experiment. Cells without compound treatment were treated with DMSO as a vehicle control at least 15 h before the experiment. DMEM was exchanged for CO2-independent phenol red-free media (Gibco) for the experiment. […] A spot was bleached with a single pulse at 100% laser power for 0.2 s and recovery images were acquired using a coolsnap HQ camera with a 2×2 bin at 0.05 s exposure. […] FRAP data was analysed using the SoftWorX software. It was fitted to a 2-dimensional recovery curve using the method of Axelrod as implemented within the software and half-times of recovery were calculated.

Brd4(2) = molecular target: T2, Brd4(2) (Homo sapiens, UniProt O60885); assay: DSF thermal shift; type: binding; details: wild type
T2 construct: Plasmids of the eight single BET bromodomain constructs Brd2(1), Brd2(2), Brd3(1), Brd3(2), Brd4(1), Brd4(2), Brdt(1) and Brdt(2); His6 (N); made in house; host or cells: E. coli BL21(DE3)

brd4(1)L094A = molecular target: T3, brd4(1)L094A (Homo sapiens, UniProt O60885, L94A); assay: DSF thermal shift; type: binding; details: mutant
T3 construct: Plasmids of the eight single BET bromodomain constructs Brd2(1), Brd2(2), Brd3(1), Brd3(2), Brd4(1), Brd4(2), Brdt(1) and Brdt(2); His6 (N); made in house; host or cells: E. coli BL21(DE3)

Brd4(1) = molecular target: T4, Brd4(1) (Homo sapiens, UniProt O60885); assay: DSF thermal shift; type: binding; details: wild type
T4 construct: Plasmids of the eight single BET bromodomain constructs Brd2(1), Brd2(2), Brd3(1), Brd3(2), Brd4(1), Brd4(2), Brdt(1) and Brdt(2); His6 (N); made in house; host or cells: E. coli BL21(DE3)

brd4(2)L387A = molecular target: T5, brd4(2)L387A (Homo sapiens, UniProt O60885, L387A); assay: DSF thermal shift; type: binding; details: mutant
T5 construct: Plasmids of the eight single BET bromodomain constructs Brd2(1), Brd2(2), Brd3(1), Brd3(2), Brd4(1), Brd4(2), Brdt(1) and Brdt(2); His6 (N); made in house; host or cells: E. coli BL21(DE3)

[1] = molecular target: T6, double Leu(94,387)/Ala mutant of GFP-Brd4 (Homo sapiens, UniProt O60885, L387A/L94A); assay: FRAP in transfected U2OS cells; type: cell-based; details: double Leu(94,387)/Ala mutant GFP-Brd4, 1 μM compound
T6 construct: U2OS cells transfected with full-length human GFP-brd4; expressed in transfected cells; host or cells: U2OS human osteosarcoma cells
Procedure: To establish whether selectivity could also be observed within cells, we developed fluorescence recovery after photobleaching (FRAP) assays using full length human GFP-BRD4 transfected into human osteosarcoma cells (U2OS). […] The data shown represent the mean±SEM (n=35-50). Statistical significance was determined by one-tailed t tests: *<0.05; **P<0.01; ***P<0.001; n.s. not significant.
Fluorescence recovery after photobleaching (FRAP) experiments were performed in human osteosarcoma U2OS cells transfected with mammalian expression constructs encoding wild type and mutant GFP chimeras of Brd4. Cells were cultured in DMEM (Gibco) supplemented with fetal bovine serum, Penicillin/Streptamycin and L-Glutamine. Cells were seeded into glass bottom dishes (Willco) to about 40% confluency and transfected with the constructs using Effectene (QIAGEN) at least 18 h before the experiment. […] FRAP studies were performed using a DeltaVision Core mounted on an Olympus IX70 stand with a 60×1.4NA plan apo objective lens equipped with a heated chamber set to 37° C. and a Quantifiable Laser Module (QLM) with 10 mW 488 nm solid state laser delivering a diffraction limited spot to the centre field of view. […] FRAP data was analysed using the SoftWorX software. It was fitted to a 2-dimensional recovery curve using the method of Axelrod as implemented within the software and half-times of recovery were calculated.

Brd2(2) Leu383-Ile, sequence (P25440 344-453 L383I limits assumed): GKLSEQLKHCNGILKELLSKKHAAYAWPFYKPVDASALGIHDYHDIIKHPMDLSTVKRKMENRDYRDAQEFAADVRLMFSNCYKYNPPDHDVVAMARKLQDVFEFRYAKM
Brd2(1) Leu110-Ile, sequence (P25440 74-180 L110I limits assumed): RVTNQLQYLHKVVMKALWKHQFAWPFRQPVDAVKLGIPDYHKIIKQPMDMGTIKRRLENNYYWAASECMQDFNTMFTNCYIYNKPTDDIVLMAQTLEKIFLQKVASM

Row | Compound | Thermal stabilisation brd2(1)L110I (Brd2(1) Leu110-Ile) [°C] | ΔTm Brd2(1)*(Leu110-Ile) (Brd2(1) Leu110-Ile) [K] | Thermal stabilisation brd2(1)L110I (Brd2(1) Leu110-Ile; listed as compound 7) [°C] | Thermal stabilisation brd2(2)V383I (Table 1); Brd2(2) Leu383-Ile (text) (Brd2(2) Leu383-Ile) [°C] | ΔTm Brd2(2)*(Leu383-Ile) (Brd2(2) Leu383-Ile) [K] | Thermal stabilisation brd2(2)V383I (Table 1); Brd2(2) Leu383-Ile (text) (Brd2(2) Leu383-Ile; listed as compound 7) [°C] | Fluorescence recovery after photobleaching (recovery time) (WT GFP-Brd4) | ΔTm Brd4(2) (Brd4(2)) [K] | ΔTm Brd4(1)* (L094A) (brd4(1)L094A) [K] | ΔTm Brd4(1) (Brd4(1)) [K] | ΔTm Brd4(2)* (L387A) (brd4(2)L387A) [K] | Fluorescence recovery after photobleaching (recovery time) [1]
1 | COC(=O)[C@H](C)[C@@H]1N=C(c2ccc(Cl)cc2)c2cc(OC)ccc2-n2c(C)nnc21 (racemic) [Compound 7, (+−)-methyl (R)-2-((S)-6-(4-chlorophenyl)-8-methoxy-1-methyl-4H-benzo[f][1,2,4]triazolo[4,3-a][1,4]diazepin-4-yl)propanoate] | 5.7 ± 0.7 | 5.7 ± 0.7 | 5.7 | 9.6 ± 0.1 | 9.6 ± 0.1 | 9.6 | – | – | – | – | – | –
2 | CC[C@@H](C(=O)OC)[C@@H]1N=C(c2ccc(Cl)cc2)c2cc(OC)ccc2-n2c(C)nnc21 (racemic) [Compound 11, (+−)-methyl (R)-2-((S)-6-(4-chlorophenyl)-8-methoxy-1-methyl-4H-benzo[f][1,2,4]triazolo[4,3-a][1,4]diazepin-4-yl)butanoate] | – | – | – | – | – | – | no reduction of recovery times relative to vehicle-treated cells | 1.5 ± 0.0 | 10.0 ± 0.2 | 1.5 ± 0.4 | 7.0 ± 0.1 | recovery times comparable to the iBET control
